# Laboratory results: patent US20140179664A1, “Heterocyclyl Pyrimidine Analogues As JAK Inhibitors” (Cellzome Limited, priority 2011, published 2014)
# System: STAT5 phosphorylation downstream of JAK3 in human YT cells
# Assay: pSTAT5 cell assay (IL-2 stimulated YT cells, AlphaScreen)
# Type: cell-based
# Conditions: IL-2 stimulation, read-out: Inhibition values (IC50) pSTAT5
# Excerpt: STAT5 phosphorylation represents one of the proximal events in the signalling cascade downstream of JAK3 activation. Therefore STAT5 phosphorylation is an appropriate readout to assess the mechanistic effect of JAK3 inhibition. Stimulation of human YT cells, an NK-like cell line, with interleukin-2 (IL-2) results in phosphorylation of STAT5 at tyrosine residue 694 (Tyr694) that can be quantitatively measured by immunodetection with specific antibodies and an appropriate detection method, in this case AlphaScreen assay technology.
# Human YT cells were grown in RPMI medium (Lonza, BE12-167) with 2 mM L-Glutamine (Invitrogen, 25030-024) and 10% heat-inactivated FBS (Invitrogen, 10106-169) and kept in a humidified incubator (37° C., 5% CO2). Cells were harvested by centrifugation, washed once with HBSS (Invitrogen, 14180-046), resuspended in HBSS at 1.5×10^6 cells/ml and 0.9×10^4 cells were seeded in 6 μl per well in a 96 well White plate (PerkinElmer, 6005569).
# Test compounds were dissolved in DMSO and a 1:3 dilution series (9 steps) was prepared. To generate a dose response curve, 3 μl of fourfold concentrated compound in 4% DMSO/HBSS were added to each cell sample in the 96 well plate resulting in a final DMSO concentration of 1% DMSO. Cells were incubated for one hour in a humidified incubator (37° C., 5% CO2). To each well 3 μl of a fourfold concentrated IL-2 solution (Recombinant human IL-2, Peprotech 200-02; 120 nM solution in HBSS) was added and incubated for 30 minutes at room temperature. Cells were lysed by adding 3 μl of 5× lysis buffer (SureFire lysis buffer; Perkin Elmer, TGRS5S10K) and incubated for 10 minutes at room temperature with gentle shaking
# For signal detection by AlphaScreen® technology the SureFire phospho-STAT5 (Tyr694/Tyr699) kit was used according to instructions provided by the manufacturer (Perkin Elmer, TGRS5S10K). Acceptor beads were added as recommended by the manufacturer (Reactivation buffer/Activation buffer/Acceptor beads at a ratio of 40:10:1) and incubated at room temperature for 1.5 hours with gentle shaking Then donor beads were added as recommended (Dilution buffer/Donor beads at a ratio of 20:1) and incubated at room temperature for 1.5 hours with gentle shaking Plates were read on an Envision instrument (Perkin Elmer) with the AlphaScreen protocol. Data were analysed in BioAssay using the nonlinear regression for a sigmoidal dose-response with a variable slope.
smiles,measurement,value
NC(=O)Cn1cc(Nc2ncc(Cl)c(N[C@H](CO)c3cccc(F)c3)n2)cn1 [Compound 87],IC50,< 250 nM
